From patent US7517874B2 (priority 2007, dated 2009)
Like-named read-outs stand apart in the source and are kept apart here.

Columns and labels:
rat CB2 receptor (rCB2) = molecular target: T1, rat CB2 receptor (rCB2) (Rattus norvegicus, UniProt Q9QZN9); test: cell-based; type: cell-based; conditions: for +/− RCB2: agonist or inverse agonist at rCB2
T1 sequence (Q9QZN9 1-360): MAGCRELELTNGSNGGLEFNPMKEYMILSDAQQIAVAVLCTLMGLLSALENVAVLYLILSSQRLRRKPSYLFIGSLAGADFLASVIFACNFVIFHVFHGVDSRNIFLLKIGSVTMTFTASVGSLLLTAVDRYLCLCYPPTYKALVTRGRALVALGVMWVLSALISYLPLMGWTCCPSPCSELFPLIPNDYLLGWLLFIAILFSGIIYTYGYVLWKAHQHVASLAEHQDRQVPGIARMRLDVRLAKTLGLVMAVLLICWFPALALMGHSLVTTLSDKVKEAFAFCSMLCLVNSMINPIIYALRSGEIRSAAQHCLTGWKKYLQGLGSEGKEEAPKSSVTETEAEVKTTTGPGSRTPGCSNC
Summary of the method: (§1)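 Readout: LANCE TR-FRET cAMP, back-calculated from a concurrent standard curve and scaled between forskolin-only and forskolin + 1 μM CP55,940 wells. EC50 and intrinsic activity came from four-parameter fits.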

[1] = molecular target: human CB1 receptor (hCB1) (Homo sapiens, UniProt P21554); test: cell-based; type: cell-based
Summary of the method: as §1

[2] = groups >100 nM-10 μM and >10 μM, cAMP, CHO-K1 hCB1, read-out: EC50 HCB1

Sequence of human CB1 receptor (hCB1) (P21554 whole entry): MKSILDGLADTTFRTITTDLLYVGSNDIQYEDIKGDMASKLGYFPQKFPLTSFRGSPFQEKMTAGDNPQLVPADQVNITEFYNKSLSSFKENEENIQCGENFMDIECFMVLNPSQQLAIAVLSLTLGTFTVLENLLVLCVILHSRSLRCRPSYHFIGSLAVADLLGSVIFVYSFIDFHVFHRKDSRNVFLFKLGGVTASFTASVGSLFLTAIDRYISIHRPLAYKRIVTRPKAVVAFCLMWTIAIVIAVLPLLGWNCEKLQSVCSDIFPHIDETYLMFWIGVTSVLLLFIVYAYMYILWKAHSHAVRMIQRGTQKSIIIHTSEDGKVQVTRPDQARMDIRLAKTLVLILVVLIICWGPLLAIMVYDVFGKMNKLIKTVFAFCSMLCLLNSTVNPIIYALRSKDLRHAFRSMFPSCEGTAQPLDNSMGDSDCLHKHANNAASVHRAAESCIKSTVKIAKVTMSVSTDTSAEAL

SMILES | +/− RCB2 (rat CB2 receptor (rCB2)) | EC50 [1] | EC50 [1, 2] | EC50 (rat CB2 receptor (rCB2); groups >100 nM-10 μM and >10 μM, cAMP, CHO-K1 rCB2, read-out: EC50 RCB2) | EC50 (rat CB2 receptor (rCB2))
CCN1CCn2c(-c3ccccc3)nc(C(=O)N[C@H](C)C3CCCCC3)c2C1 [Compound 164, (R)-N-(1-cyclohexylethyl)-7-ethyl-3-phenyl-5,6,7,8-tetrahydroimidazo[1,5-a]pyrazine-1-carboxamide] | − | > 10000 nM |  |  | 
CC(C)CN1CCn2c(-c3ccccc3)nc(C(=O)NC3CCCCC3)c2C1 [Compound 165, N-cyclohexyl-7-isobutyl-3-phenyl-5,6,7,8-tetrahydroimidazo[1,5-a]pyrazine-1-carboxamide] | − | > 10000 nM |  |  | 
O=C(NC1CCCCC1)c1nc(-c2ccccc2)n2c1CN(CCO)CC2 [Compound 166, N-cyclohexyl-7-(2-hydroxyethyl)-3-phenyl-5,6,7,8-tetrahydroimidazo[1,5-a]pyrazine-1-carboxamide] | − |  | > 10000 nM |  | 
CC(C)CN1CCn2c(-c3ccccc3)nc(C(=O)NCC3CCOCC3)c2C1 [Compound 167, 7-isobutyl-3-phenyl-N-((tetrahydro-2H-pyran-4-yl)methyl)-5,6,7,8-tetrahydroimidazo[1,5-a]pyrazine-1-carboxamide] | − | > 10000 nM |  |  | 
CCN1CCn2c(-c3ccccc3)nc(C(=O)NCC3CCOCC3)c2C1 [Compound 168, 7-ethyl-3-phenyl-N-((tetrahydro-2H-pyran-4-yl)methyl)-5,6,7,8-tetrahydroimidazo[1,5-a]pyrazine-1-carboxamide] | − | > 10000 nM |  |  | 
O=C(NCC1CCOCC1)c1nc(-c2ccccc2)n2c1CN(CCO)CC2 [Compound 169, 7-(2-hydroxyethyl)-3-phenyl-N-((tetrahydro-2H-pyran-4-yl)methyl)-5,6,7,8-tetrahydroimidazo[1,5-a]pyrazine-1-carboxamide] | − |  | > 10000 nM |  | 
CC(=O)N1CCn2c(-c3ccccc3)nc(C(=O)N[C@H](C)C3CCCCC3)c2C1 [Compound 170, (R)-7-acetyl-N-(1-cyclohexylethyl)-3-phenyl-5,6,7,8-tetrahydro-imidazo[1,5-a]pyrazine-1-carboxamide] | − | > 10000 nM |  |  | 
CC(C)NC(=O)N1CCn2c(-c3ccccc3)nc(C(=O)NC3C4(C)CCC(C4)C3(C)C)c2C1 (stereo not shown) [Compound 171, N7-isopropyl-3-phenyl-N1-(1,3,3-trimethylbicyclo[2.2.1]heptan-2-yl)-5,6-dihydroimidazo[1,5-a]pyrazine-1,7(8H)-dicarboxamide] | − | > 10000 nM |  |  | 
CC(=O)N1CCn2c(-c3ccccc3)nc(C(=O)N[C@@H](C)c3ccccc3)c2C1 [Compound 172, (S)-7-acetyl-3-phenyl-N-(1-phenylethyl)-5,6,7,8-tetrahydroimidazo[1,5-a]pyrazine-1-carboxamide] | + | > 10000 nM |  |  | 
CC(=O)N1CCn2c(-c3ccccc3)nc(C(=O)Nc3ccccc3)c2C1 [Compound 173, 7-acetyl-N,3-diphenyl-5,6,7,8-tetrahydroimidazo[1,5-a]pyrazine-1-carboxamide] |  |  | > 10000 nM | > 10000 nM | 
CNC(=O)[C@@H](NC(=O)c1nc(-c2ccccc2)n2c1CN(C(C)=O)CC2)C(C)(C)C [Compound 174, (S)-7-acetyl-N-(3,3-dimethyl-1-(methylamino)-1-oxobutan-2-yl)-3-phenyl-5,6,7,8-tetrahydroimidazo[1,5-a]pyrazine-1-carboxamide] | + | > 10000 nM |  |  | 
CC(=O)N1CCn2c(-c3ccccc3)nc(C(=O)NN3CCCCC3)c2C1 [Compound 175, 7-acetyl-3-phenyl-N-(piperidin-1-yl)-5,6,7,8-tetrahydroimidazo[1,5-a]pyrazine-1-carboxamide] |  | > 10000 nM |  |  | > 10000 nM
CC(=O)N1CCn2c(-c3ccccc3)nc(C(=O)NCC3CCOCC3)c2C1 [Compound 176, 7-acetyl-3-phenyl-N-((tetrahydro-2H-pyran-4-yl)methyl)-5,6,7,8-tetrahydroimidazo[1,5-a]pyrazine-1-carboxamide] |  | > 10000 nM |  |  | > 10000 nM
CC(=O)N1CCn2c(-c3ccccc3)nc(C(=O)NC3CCCCC3)c2C1 [Compound 177, 7-acetyl-N-cyclohexyl-3-phenyl-5,6,7,8-tetrahydroimidazo[1,5-a]pyrazine-1-carboxamide] | − | > 10000 nM |  |  | 
COC(=O)N1CCn2c(-c3ccccc3)nc(C(=O)NC3C4(C)CCC(C4)C3(C)C)c2C1 (stereo not shown) [Compound 178, methyl 3-phenyl-1-(1,3,3-trimethylbicyclo[2.2.1]heptan-2-ylcarbamoyl)-5,6-dihydroimidazo[1,5-a]pyrazine-7(8H)-carboxylate] | − | > 10000 nM |  |  | 
COC(=O)N1CCn2c(-c3ccccc3)nc(C(=O)N[C@@H](C)c3ccccc3)c2C1 [Compound 179, (S)-methyl 3-phenyl-1-(1-phenylethylcarbamoyl)-5,6-dihydroimidazo[1,5-a]pyrazine-7(8H)-carboxylate] | − | > 10000 nM |  |  | 
CNC(=O)[C@@H](NC(=O)c1nc(-c2ccccc2)n2c1CN(C(=O)OC)CC2)C(C)(C)C [Compound 180, (S)-methyl 1-(3,3-dimethyl-1-(methylamino)-1-oxobutan-2-ylcarbamoyl)-3-phenyl-5,6-dihydroimidazo[1,5-a]pyrazine-7(8H)-carboxylate] | − | > 10000 nM |  |  | 
COC(=O)N1CCn2c(-c3ccccc3)nc(C(=O)Nc3ccccc3)c2C1 [Compound 181, methyl 3-phenyl-1-(phenylcarbamoyl)-5,6-dihydroimidazo[1,5-a]pyrazine-7(8H)-carboxylate] | − |  | > 10000 nM |  | 
COC(=O)N1CCn2c(-c3ccccc3)nc(C(=O)NN3CCCCC3)c2C1 [Compound 182, methyl 3-phenyl-1-(piperidin-1-ylcarbamoyl)-5,6-dihydroimidazo[1,5-a]pyrazine-7(8H)-carboxylate] | − |  | > 10000 nM |  | 
COC(=O)N1CCn2c(-c3ccc(Cl)cc3)nc(C(=O)NCCC(C)C)c2C1 [Compound 183, methyl 3-(4-chlorophenyl)-1-(isopentylcarbamoyl)-5,6-dihydroimidazo[1,5-a]pyrazine-7(8H)-carboxylate] | − | > 10000 nM |  |  | 
COC(=O)N1CCn2c(-c3ccc(Cl)cc3)nc(C(=O)N[C@H](CO)C(C)(C)C)c2C1 [Compound 184, (S)-methyl 3-(4-chlorophenyl)-1-(1-hydroxy-3,3-dimethylbutan-2-ylcarbamoyl)-5,6-dihydroimidazo[1,5-a]pyrazine-7(8H)-carboxylate] | − | > 10000 nM |  |  | 
COC(=O)N1CCn2c(-c3ccccc3)nc(C(=O)N[C@H](C)C3CCCCC3)c2C1 [Compound 185, (R)-methyl 1-(1-cyclohexylethylcarbamoyl)-3-phenyl-5,6-dihydroimidazo[1,5-a]pyrazine-7(8H)-carboxylate] | − | > 10000 nM |  |  | 
COC(=O)N1CCn2c(-c3ccccc3)nc(C(=O)NCC3CCOCC3)c2C1 [Compound 186, methyl 3-phenyl-1-((tetrahydro-2H-pyran-4-yl)methylcarbamoyl)-5,6-dihydroimidazo[1,5-a]pyrazine-7(8H)-carboxylate] | − | > 10000 nM |  |  | 
COC(=O)N1CCn2c(-c3ccccc3)nc(C(=O)NC3CCCCC3)c2C1 [Compound 187, methyl 1-(cyclohexylcarbamoyl)-3-phenyl-5,6-dihydroimidazo[1,5-a]pyrazine-7(8H)-carboxylate] | − |  | > 10000 nM |  | 
CNC(=O)[C@@H](NC(=O)c1nc(-c2ccccc2)n2c1CN(C(=O)CC(C)(C)C)CC2)C(C)(C)C [Compound 188, (S)-N-(3,3-dimethyl-1-(methylamino)-1-oxobutan-2-yl)-7-(3,3-dimethylbutanoyl)-3-phenyl-5,6,7,8-tetrahydroimidazo[1,5-a]pyrazine-1-carboxamide] | − | > 10000 nM |  |  | 
CCC(=O)N1CCn2c(-c3ccccc3)nc(C(=O)N[C@H](C(=O)NC)C(C)(C)C)c2C1 [Compound 189, (S)-N-(3,3-dimethyl-1-(methylamino)-1-oxobutan-2-yl)-3-phenyl-7-propionyl-5,6,7,8-tetrahydroimidazo[1,5-a]pyrazine-1-carboxamide] | + | > 10000 nM |  |  | 
CNC(=O)[C@@H](NC(=O)c1nc(-c2ccccc2)n2c1CN(C(=O)C(C)(C)C)CC2)C(C)(C)C [Compound 190, (S)-N-(3,3-dimethyl-1-(methylamino)-1-oxobutan-2-yl)-3-phenyl-7-pivaloyl-5,6,7,8-tetrahydroimidazo[1,5-a]pyrazine-1-carboxamide] | − | > 10000 nM |  |  | 
CNC(=O)[C@@H](NC(=O)c1nc(-c2ccccc2)n2c1CN(C(=O)C(C)C)CC2)C(C)(C)C [Compound 191, (S)-N-(3,3-dimethyl-1-(methylamino)-1-oxobutan-2-yl)-7-isobutyryl-3-phenyl-5,6,7,8-tetrahydroimidazo[1,5-a]pyrazine-1-carboxamide] | − | > 10000 nM |  |  | 
CNC(=O)[C@@H](NC(=O)c1nc(-c2ccccc2)n2c1CN(C(=O)NC(C)(C)C)CC2)C(C)(C)C [Compound 192, (S)-N7-tert-butyl-N1-(3,3-dimethyl-1-(methylamino)-1-oxobutan-2-yl)-3-phenyl-5,6-dihydroimidazo[1,5-a]pyrazine-1,7(8H)-dicarboxamide] | − | > 10000 nM |  |  | 
